For orientation: IC50 means the point on the concentration scale where inhibition reaches its midpoint. A high value points to lower potency. For orientation: viability means a per cent measure of how many cells are alive, often set against a control.

The values below come from article PMC10253812, “Novel 2-alkythio-4-chloro-N-[imino(heteroaryl)methyl]benzenesulfonamide Derivatives: Synthesis, Molecular Structure, Anticancer Activity and Metabolic Stability” (International Journal of Molecular Sciences, 2023).

The subject of data set [1] is HCT-116 (colon cancer) cell line. The experiment in a line: MTT cell viability assay, HCT-116. The note with it: Homo sapiens, 72 h of incubation. The data set is classed as cell-based. The method, then:
(§1) Compounds 8–24 were evaluated in vitro for their cytotoxic effect against three human cancer cell lines, i.e., HeLa (cervical cancer), HCT-116 (colon cancer) and MCF-7 (breast cancer), and the non-tumor cell line HaCaT using the MTT assay after 72 h of incubation. The results of tests are presented in Table 1 as IC50, indicating the concentration required for 50% inhibition of cell viability. Compounds 8–10 and 14–18 are not presented in the Table 1 because of their low potency (IC50 > 100 µM).
(§2) All chemicals, if not stated otherwise, were obtained from Sigma-Aldrich (St. Louis, MO, USA). The MCF-7, HeLa and HaCaT cell lines were purchased from Cell Lines Services (Eppelheim, Germany), and the HCT-116 cell line was purchased from ATCC (ATCC-No: CCL-247). The cells were cultured in Dulbecco’s modified Eagle’s medium (DMEM) supplemented with 10% fetal bovine serum, 2 mM glutamine, 100 units/mL of penicillin and 100 μg/mL of streptomycin. The cultures were maintained in a humidified atmosphere with 5% CO2 at 37 °C, in an incubator (Heraeus, HeraCell).
(§3) Cytotoxicity assay: Cell viability was determined using the MTT (3-(4,5-dimethylthiazol-2-yl)-2,5diphenyltetrazoliumbromide) assay. The cells were seeded in 96-well plates at a density of 5 × 10^3 cells/well and treated for 24, 48 and 72 h with the examined compounds in the concentration range 1–100 μM. Following treatment, MTT (0.5 mg/mL) was added to the medium, and the cells were further incubated for 2 h at 37 °C. the cells were lysed with DMSO, and the absorbance of the formazan solution was measured at 550 nm with a plate reader (Victor, 1420 multilabel counter). The experiment was performed in triplicate. The values are expressed as the mean ± SD of at least three independent experiments.
(Tetrazolium dyes change colour on reduction, which living cells bring about.)

The nature of data set [2]: In vitro metabolic stability assay. The class given is in vitro ADME, human. The settings on record: for half-life at 10 μM: pH 7.4, human liver microsomes 0.5 mg/mL, 1 mM NADPH, 10 μM compound, 37 °C, n = 3, read-out: in vitro metabolic half-life t1/2. As for the experimental part:
Human liver microsomes along with NADPH were used to assess their susceptibility to undergo first-phase oxidation reactions. The progress of biotransformation was followed by liquid chromatography–mass spectrometry. In order to support the in vitro results, we performed in silico calculations using the Human Liver Microsome-based model for CYP-mediated oxidations provided by the Xenosite online tool.
Stock solutions of the studied compounds were prepared at a concentration of 10 mM in DMSO. […] The incubation mixture contained the studied derivative at a 10 μM concentration, 1 mM NADPH (Sigma-Aldrich) and 0.5 mg/mL of human liver microsomes (HLM, Sigma-Aldrich) in potassium phosphate buffer (0.1 M, pH 7.4). The incubation was carried out in a thermostat at 37 °C and started by the addition of the compound of interest. Then, 20 μL samples were taken after 5, 15, 30, 45 and 60 min. The enzymatic reaction was terminated by the addition of an equal volume of ice-cold acetonitrile containing 10 μM sulfamethoxazole as an internal standard. Control incubations were performed without NADPH as a negative control reflecting NADPH-independent processes, such as chemical degradation and precipitation. After collection, the samples were immediately centrifuged (10 min, 10,000 rpm), and the resulting supernatant was directly analyzed or kept at −80 °C until LC-MS analysis. The natural logarithm of a compound over the IS peak area ratio was plotted vs. the incubation time.
The LC-MS analysis was performed on an Agilent 1260 system coupled to SingleQuad 6120 mass spectrometer (Agilent Technologies, Santa Clara, CA, USA). Poroshell EC-C18 (2.1 mm × 150 mm, 2.7 μm, Agilent Technologies, Santa Clara, CA, USA) was used in reversed-phase mode with gradient elution starting with 90% of phase A (0.1% formic acid in water) and 10% of phase B (0.1% dormic acid in acetonitrile). […] The total analysis time was 21 min at 25 °C, the flow rate was 0.5 mL/min, and the injection volume was 20 μL. The mass spectrometer was equipped with an electrospray ion source and operated in positive ionization mode. The mass analyzer was set for each individual compound to detectthe [M+H]^+ protonated molecule. The MSD parameters of the ESI source were as follows: nebulizer pressure 40 psig (N2), drying gas […] (N2), drying gas temperature 300 °C, capillary voltage 3.0 kV, fragmentor voltage 150 V.
(In general: Liver microsomes are vesicles of endoplasmic reticulum, rich in cytochrome P450 enzymes.)

Another data set deals with HeLa cells. The experiment in a line: Apoptosis detection by Annexin V-PE and 7-AAD staining, flow cytometry. The data set is classed as cell-based, human. The settings on record: 5 and 10 µM, 48 h. The method, then:
In order to determine whether the anti-proliferative effects of 11, 12 and 13 were associated with their ability to induce apoptosis in HeLa cells, the induction of phosphatidylserine externalization by compounds 11, 12 and 13 was examined by flow cytometric analysis. The cells were treated with 2.5, 5 and 10 µM concentrations of 11, 12 and 13 for 24 and 48 h and stained with Annexin V-PE and 7-AAD. […] After 24 h of treatment, a significant increase in the early apoptotic population of cells was visible starting from the concentration of 5 µM.
Detection of apoptosis by Annexin V-PE and 7-AAD staining: Apoptosis induction was detected with an Annexin V-PE Apoptosis Detection Kit I (BD Biosciences, Belgium) according to the manufacturer’s instructions. The cells were treated with 11–13 (2.5, 5 and 10 µM) for 24 and 48 h. Following treatment, the cells were collected and stained with Annexin V-phycoerythrin (PE) and 7-amino-actinomycin (7-AAD) in Annexin-binding buffer for 15 min at RT in the dark. The acquisition was performed on a FACSCalibur cytometer (BD), and the data were analyzed with Flowing software (version 2.5).
On the technique in general: Flow cytometry measures light scatter and fluorescence of single cells or particles in a stream.

Data set [3] deals with MCF-7 (breast cancer) cell line. The experiment in a line: MTT cell viability assay, MCF-7. The data set is classed as cell-based, human. The note with it: Homo sapiens, MCF7; for viability at 100 µM: MCF-7, MTT, 72 h, read-out: Viability of cell line in the presence of 100 μM of the tested compound. As for the experimental part:
as §1, §2, §3

In data set [4] the test system is caspase activity in HeLa cells. The experiment in a line: Caspase activity determination (FLICA, FAM-VAD-FMK), flow cytometry. The class given is cell-based, human. The note with it: HeLa, 5, 7 and 10 µM, 24 h. The method, then: Apoptosis induction was further determined by examining the effects of 11, 12 and 13 on caspase activation in HeLa cells. Caspase activity induction was determined with the use of the fluorescently labeled caspase inhibitor-FAM-VAD-FMK (a carboxyfluorescein derivative of valylalanylaspartic acid fluoromethyl ketone). The caspase inhibitor binds to active caspases inhibiting their enzymatic activity, thus allowing caspase activity quantification through determining the fluorescent intensity of the bound inhibitor. […] Increased caspase activation was shown by the increased fluorescence of the caspase inhibitor in the cell population, as indicated in Figure 6.
Caspase Activity Determination: Caspase activity was determined with the FLICA Apoptosis Detection Kit (Immunochemistry Technologies) according to the manufacturer’s instructions. The cells were treated with comp. 11, 12 and 13 (5, 7 and 10 µM) for 24 h, after which the cells were collected and suspended in a buffer containing the caspase inhibitor, i.e., a carboxyfluorescein-labeled fluoromethyl ketone peptide. The cells were subsequently incubated for 1 h at 37 °C under 5% CO2 and, next, they were washed with a washing buffer. The fluorescence intensity of fluorescein was determined by flow cytometry (BD FACSCalibur), and caspase activity was determined as the amount of fluorescence emitted from the caspase inhibitors bound to the caspases. The data were analyzed with Flowing software (version 2.5).

With `Cc1cc(S(=O)(=O)NC(=N)n2ccn(C)c2=S)c(SCc2ccc(Cl)cc2)cc1Cl` [Compound 11, 4-Chloro-N-[imino(3-methyl-2-thioxo-2,3-dihydro-1H-imidazol-1-yl)methyl]-5-methyl-2-(4-chlorobenzylthio)benzenesulfonamide], the IC50 was 11 ± 0.3 µM in data set [1] and greater than 100 µM in data set [3] (MTT assay, 72 h of incubation). The half-life at 10 μM in data set [2] came to 9.1 min. In the data set with HeLa cells, the “cells in the late stage of apoptosis” value is “significant increase in cells in the late stage of apoptosis”. Besides, the caspase activity induction result in data set [4] is “induced caspase activity in HeLa cells in a dose-dependent manner”.

Regarding `Cc1cc(S(=O)(=O)NC(=N)n2ccn(C)c2=S)c(SCc2cccc3ccccc23)cc1Cl` [Compound 13, 4-Chloro-N-[imino(3-methyl-2-thioxo-2,3-dihydro-1H-imidazol-1-yl)methyl]-5-methyl-2-(naphthalen-1-ylmethylthio)benzenesulfonamide], the midpoint of inhibition in data set [1], the IC50, lay at 73 ± 2 µM. In addition, in data set [2], the half-life at 10 μM came to 13.9 min. For the same molecule, the “cells in the late stage of apoptosis” value with HeLa cells is listed as “significant increase in cells in the late stage of apoptosis”. The viability at 100 µM in data set [3] came to 100%. Besides, the caspase activity induction entry in data set [4] is “induced caspase activity in HeLa cells in a dose-dependent manner”.

The molecule `Cc1cc(S(=O)(=O)NC(=N)n2ccn(C)c2=S)c(SCc2cc3c(cc2Cl)OCO3)cc1Cl` [Compound 12] registered an IC50 in data set [1] greater than 100 µM. In data set [2] (human liver microsomes with NADPH, order 12 > 13 > 11), the “relative metabolic stability in vitro” value is “exhibited the best stability in vitro among the studied set of compounds”. Further, the half-life at 10 μM in data set [2] was 20.3 min. In addition, the “cells in the late stage of apoptosis” value with HeLa cells is on record as “significant increase in cells in the late stage of apoptosis”. The viability at 100 µM in data set [3] turned out to be 100%. Moreover, in data set [4], the caspase activity induction entry is on record as “induced caspase activity in HeLa cells in a dose-dependent manner”.
